Where two headings read alike, the source gives them in different places.

The subject of this test is MV4:11 human cancer cell lines. In words: Cellular viability / anti-proliferative activity, CellTiter-Glo, 5 day protocol. Type of test: cell-based. The settings on record: read-out: GI50 on cellular proliferation of MV4:11 human cancer cell lines. The method, then: Cellular Viability of Human Tumor Cell Lines
Anti proliferative activity using MLL-harboring cell lines. […] Viability assays are performed by dispensing 200 cells at 7200 cells/mL into each well of an opaque 384-well plate and adding compounds at the indicated concentrations in a final volume of 32 μL and a final concentration of DMSO of 0.3% for all samples. A certain range of compound concentrations is made through a series of 2-fold dilutions starting 30 μM at the highest, total 22 dilutions. After a set incubation period, 5 day protocol, the viability of cells in each well is assessed using the CellTiter-Glo assay (Promega), read on a 96 Microplane Luminometer (Cytation 3, BioTek). Serial dilutions of each cell type are performed in all assays to generate standard curves and the final densities of cells are determined within the dynamic range of the instrument. GI50 values are calculated based on XLfit software (IDBS, Guildford, UK) with Sigmoidal Dose-Response Model. Each compound is tested in minimum of two replicates. Data are expressed as mean.

Where [1] appears, read: Homo sapiens, MV4-11, 120 h, MV4:11 cells, 5 day incubation, CellTiter-Glo, mean of minimum two replicates.

As to `CC[C@H](c1cncc(C)c1)N1CCc2c(cc(Cn3ccnc3C)cc2-c2cn(C)nc2C(F)(F)F)C1=O` [Example 198, (R)-7-((2-Methyl-1H-imidazol-1-yl)methyl)-5-(1-methyl-3-(trifluoromethyl)-1H-pyrazol-4-yl)-2-(1-(5-methylpyridin-3-yl)propyl)-3,4-dihydroisoquinolin-1(2H)-one], the GI50 under setting [1] was 62 nM.

With `COc1ccnc(CN2CCc3c(cc(CN4CCOC4=N)cc3-c3cn(C)nc3C(F)(F)F)C2=O)c1` [Example 83, 7-((2-Iminooxazolidin-3-yl)methyl)-2-((4-methoxypyridin-2-yl)methyl)-5-(1-methyl-3-(trifluoromethyl)-1H-pyrazol-4-yl)-3,4-dihydroisoquinolin-1(2H)-one], the GI50 under setting [1] was under 50 nM. On the same count and under the same terms, the result for `CCn1cc(-c2cc(Cn3ccn(C)c3=N)cc3c2CCN(Cc2cc(C)nn2C)C3=O)c(C(F)(F)F)n1` [Example 74] reads over 938 nM.

Regarding `COc1ccnc(CN2CCc3c(cc(CN4CCCC4=N)cc3-c3cn(C)nc3C)C2=O)c1` [Example 110, 5-(1,3-Dimethyl-1H-pyrazol-4-yl)-7-((2-iminopyrrolidin-1-yl)methyl)-2-((4-methoxypyridin-2-yl)methyl)-3,4-dihydroisoquinolin-1(2H)-one], the GI50 under setting [1] was over 938 nM.

As for `CCn1cc(-c2cc(Cn3ccnc3C(C)C)cc3c2CCN([C@@H](C)c2cc(OC)ccn2)C3=O)c(C(F)(F)F)n1` [Example 162, (S)-5-(1-Ethyl-3-(trifluoromethyl)-1H-pyrazol-4-yl)-7-((2-isopropyl-1H-imidazol-1-yl)methyl)-2-(1-(4-methoxypyridin-2-yl)ethyl)-3,4-dihydroisoquinolin-1(2H)-one], the GI50 under setting [1] came out at 13400 nM. `COc1cc(CN2CCc3c(cc(Cn4cnn(C)c4=N)cc3-c3ccc(C)nc3C)C2=O)cc(OC)c1` [Example 127, 2-(3,5-Dimethoxybenzyl)-5-(2,6-dimethylpyridin-3-yl)-7-((5-imino-1-methyl-1,5-dihydro-4H-1,2,4-triazol-4-yl)methyl)-3,4-dihydroisoquinolin-1(2H)-one]: under setting [1], the GI50 was determined as 345 nM. `CCn1cc(CN2CCc3c(cc(CN4CCOC4=N)cc3-c3cn(CC)nc3C(F)(F)F)C2=O)nn1` [Example 99, 2-((1-Ethyl-1H-1,2,3-triazol-4-yl)methyl)-5-(1-ethyl-3-(trifluoromethyl)-1H-pyrazol-4-yl)-7-((2-iminooxazolidin-3-yl)methyl)-3,4-dihydroisoquinolin-1(2H)-one]: under setting [1], the GI50 is 77 nM.

Regarding `Cc1nccn1Cc1cc2c(c(-c3cn(C)nc3C(F)(F)F)c1)CCN(c1cnccc1-c1ccccc1)C2=O` [Example 246, 7-((2-Methyl-1H-imidazol-1-yl)methyl)-5-(1-methyl-3-(trifluoromethyl)-1H-pyrazol-4-yl)-2-(4-phenylpyridin-3-yl)-3,4-dihydroisoquinolin-1(2H)-one], under setting [1], the GI50 stood at 1870 nM.

Regarding `CCn1cc(-c2cc(CN3CCOC3=N)cc3c2CCN(Cc2cc(OC)ccn2)C3=O)cn1` [Example 86, 5-(1-Ethyl-1H-pyrazol-4-yl)-7-((2-iminooxazolidin-3-yl)methyl)-2-((4-methoxypyridin-2-yl)methyl)-3,4-dihydroisoquinolin-1(2H)-one], the GI50 under setting [1] stood at 740 nM. On the same count and under the same terms, the result for `Cc1ccnc(CN2CCc3c(cc(Cn4ccn(C)c4=N)cc3-c3cn(C)nc3C(F)(F)F)C2=O)c1` [Example 53, 7-((2-Imino-3-methyl-2,3-dihydro-1H-imidazol-1-yl)methyl)-5-(1-methyl-3-(trifluoromethyl)-1H-pyrazol-4-yl)-2-((4-methylpyridin-2-yl)methyl)-3,4-dihydroisoquinolin-1(2H)-one] reads under 50 nM; that for `Cc1nccn1Cc1cc2c(c(-c3cn(C)nc3C(F)(F)F)c1)CCN(c1ccc(F)cc1OCC1CC1)C2=O` [Example 253, 2-(2-(Cyclopropylmethoxy)-4-fluorophenyl)-7-((2-methyl-1H-imidazol-1-yl)methyl)-5-(1-methyl-3-(trifluoromethyl)-1H-pyrazol-4-yl)-3,4-dihydroisoquinolin-1(2H)-one], 2090 nM.

With `COc1cc(CN2CCc3c(cc(Cn4ccoc4=N)cc3-c3ccc(F)cc3C)C2=O)cc(OC)c1` [Example 81, 2-(3,5-Dimethoxybenzyl)-5-(4-fluoro-2-methylphenyl)-7-((2-iminooxazol-3(2H)-yl)methyl)-3,4-dihydroisoquinolin-1(2H)-one], the GI50 under setting [1] is 155 nM.

As to `COc1ccnc(CN2Cc3c(cc(Cn4ccn(C)c4=N)cc3C3CC3)C2=O)c1` [Example 136, 4-Cyclopropyl-6-((2-imino-3-methyl-2,3-dihydro-1H-imidazol-1-yl)methyl)-2-((4-methoxypyridin-2-yl)methyl)isoindolin-1-one], under setting [1], the GI50 was over 938 nM. As for `Cc1cc(CN2CCc3c(cc(Cn4ccnc4C)cc3-c3cn(C)nc3C(F)(F)F)C2=O)cnc1Cl` [Example 242, 2-((6-Chloro-5-methylpyridin-3-yl)methyl)-7-((2-methyl-1H-imidazol-1-yl)methyl)-5-(1-methyl-3-(trifluoromethyl)-1H-pyrazol-4-yl)-3,4-dihydroisoquinolin-1(2H)-one], where the note is “MV4:11 cells, 5 day incubation, CellTiter-Glo, mean of minimum two replicates”, the GI50 was found to be 50 nM. For the compound `CCn1cc(-c2cc(Cn3ccnc3)cc3c2CCN([C@@H](C)c2cc(OC)ccn2)C3=O)c(C(F)(F)F)n1` [Example 160, (S)-7-((1H-Imidazol-1-yl)methyl)-5-(1-ethyl-3-(trifluoromethyl)-1H-pyrazol-4-yl)-2-(1-(4-methoxypyridin-2-yl)ethyl)-3,4-dihydroisoquinolin-1(2H)-one], the GI50 under setting [1] was under 50 nM. On to `COc1ccnc([C@H](C2CC2)N2CCc3c(cc(Cn4ccnc4C)cc3-c3cn(C)nc3C(F)(F)F)C2=O)c1` [Example 251, (S)-2-(Cyclopropyl(4-methoxypyridin-2-yl)methyl)-7-((2-methyl-1H-imidazol-1-yl)methyl)-5-(1-methyl-3-(trifluoromethyl)-1H-pyrazol-4-yl)-3,4-dihydroisoquinolin-1(2H)-one], for which the GI50 (Homo sapiens, MV4-11, 120 h) was under 50 nM.

As to `CCn1cc(-c2cc(CN3CCCC3=N)cc3c2CCN(Cc2cc(OC)ccn2)C3=O)cn1` [Example 111, 5-(1-Ethyl-1H-pyrazol-4-yl)-7-((2-iminopyrrolidin-1-yl)methyl)-2-((4-methoxypyridin-2-yl)methyl)-3,4-dihydroisoquinolin-1(2H)-one], the GI50 under setting [1] is over 938 nM. `Cc1nccn1Cc1cc2c(c(-c3cn(C)nc3C(F)(F)F)c1)CCN(Cc1cc(Br)cc3[nH]ccc13)C2=O` [Example 236, 2-((6-Bromo-1H-indol-4-yl)methyl)-7-((2-methyl-1H-imidazol-1-yl)methyl)-5-(1-methyl-3-(trifluoromethyl)-1H-pyrazol-4-yl)-3,4-dihydroisoquinolin-1(2H)-one]: under setting [1], the GI50 was determined as 121 nM. For the compound `CCn1cc(CN2CCc3c(cc(Cn4ccnc4C)cc3-c3cn(CC)nc3C(F)(F)F)C2=O)nn1` [Example 15, 2-((1-Ethyl-1H-1,2,3-triazol-4-yl)methyl)-5-(1-ethyl-3-(trifluoromethyl)-1H-pyrazol-4-yl)-7-((2-methyl-1H-imidazol-1-yl)methyl)-3,4-dihydroisoquinolin-1(2H)-one], under setting [1], the GI50 stood at 76 nM. Same read-out and setting: the result for `Cc1cncc(CN2CCc3c(cc(Cn4ccnc4C)cc3-c3cn(C)nc3C(F)(F)F)C2=O)c1` [Example 157, 7-((2-Methyl-1H-imidazol-1-yl)methyl)-5-(1-methyl-3-(trifluoromethyl)-1H-pyrazol-4-yl)-2-((5-methylpyridin-3-yl)methyl)-3,4-dihydroisoquinolin-1(2H)-one] reads under 50 nM; that for `Cc1nccn1Cc1cc2c(c(-c3cn(C)nc3C(F)(F)F)c1)CCN(c1ccccc1OC(C)C)C2=O` [Example 256, 2-(2-Isopropoxyphenyl)-7-((2-methyl-1H-imidazol-1-yl)methyl)-5-(1-methyl-3-(trifluoromethyl)-1H-pyrazol-4-yl)-3,4-dihydroisoquinolin-1(2H)-one], 3860 nM.

Take `CCn1cc(-c2cc(Cn3ccnc3C)cc3c2CCN([C@H](c2cc(C)ccn2)C2CC2)C3=O)c(C(F)(F)F)n1` [Example 177, (S)-2-(Cyclopropyl(4-methylpyridin-2-yl)methyl)-5-(1-ethyl-3-(trifluoromethyl)-1H-pyrazol-4-yl)-7-((2-methyl-1H-imidazol-1-yl)methyl)-3,4-dihydroisoquinolin-1(2H)-one]: under setting [1], the GI50 was under 50 nM. For `CCn1cc(-c2cc(Cn3ccnc3NC)cc3c2CCN([C@@H](C)c2cc(OC)ccn2)C3=O)c(C(F)(F)F)n1` [Example 161, (S)-5-(1-Ethyl-3-(trifluoromethyl)-1H-pyrazol-4-yl)-2-(1-(4-methoxypyridin-2-yl)ethyl)-7-((2-(methylamino)-1H-imidazol-1-yl)methyl)-3,4-dihydroisoquinolin-1(2H)-one], the GI50 under setting [1] was under 50 nM. Still for that read-out and setting: the figure for `CCn1cc(-c2cc(CN3Cc4ccccc4C3=N)cc3c2CCN(Cc2cc(OC)ccn2)C3=O)c(C(F)(F)F)n1` [Example 115, 5-(1-Ethyl-3-(trifluoromethyl)-1H-pyrazol-4-yl)-7-((1-iminoisoindolin-2-yl)methyl)-2-((4-methoxypyridin-2-yl)methyl)-3,4-dihydroisoquinolin-1(2H)-one] is over 938 nM; for `Cc1cc(CN2CCc3c(cc(Cn4ccn(C)c4=N)cc3-c3ccc(F)cc3C)C2=O)ccc1F` [Example 31, 5-(4-Fluoro-2-methylphenyl)-2-(4-fluoro-3-methylbenzyl)-7-((2-imino-3-methyl-2,3-dihydro-1H-imidazol-1-yl)methyl)-3,4-dihydroisoquinolin-1(2H)-one] it is under 50 nM.
